According to US20260184713A1, “KINASE INHIBITORS” (The United States of America, as represented by the …, priority 2022, published 2026):
Like-named read-outs stand apart in the source and are kept apart here.

Columns and labels:
Assay in all cases: HOTSPOT radiometric kinase assay
[1] = biological target: T1, CLK2 (Homo sapiens, UniProt P49760); assay type: biochemical; details: 10 μM ATP
T1 construct: purchased Reaction Biology Corp

[2] = biological target: ERBB2/HER2 (Homo sapiens, UniProt P04626)
[3] = biological target: T2, MST3 (Homo sapiens, UniProt Q9Y6E0); assay type: biochemical; details: 10 μM ATP
T2 construct: purchased Reaction Biology Corp

[4] = biological target: T3, BMPR2 (Homo sapiens, UniProt Q13873); assay type: biochemical; details: 10 μM ATP
T3 construct: purchased Reaction Biology Corp

[5] = biological target: MAP2K1 (MEK1) (Homo sapiens, UniProt Q02750)
[6] = biological target: CK1α1 (Homo sapiens, UniProt P48729)
[7] = biological target: FLT1/VEGFR1 (Homo sapiens, UniProt P17948)
[8] = biological target: CAMK1δ (Homo sapiens, UniProt Q8IU85)
[9] = biological target: T4, STK39/STLK3 (Homo sapiens, UniProt Q9UEW8); assay type: biochemical; details: 2 μM, 10 μM ATP
T4 construct: purchased Reaction Biology Corp

[10] = biological target: T5, CDK9 (Homo sapiens, UniProt P50750); assay type: biochemical; details: 50 nM, 10 μM ATP
T5 construct: purchased Reaction Biology Corp

[11] = biological target: T6, BRAF (Homo sapiens, UniProt P15056); assay type: biochemical; details: 10 μM ATP
T6 construct: purchased Reaction Biology Corp

[12] = biological target: T7, DYRK2 (Homo sapiens, UniProt Q92630); assay type: biochemical
T7 construct: purchased Reaction Biology Corp
T7 sequence (Q92630 1-601): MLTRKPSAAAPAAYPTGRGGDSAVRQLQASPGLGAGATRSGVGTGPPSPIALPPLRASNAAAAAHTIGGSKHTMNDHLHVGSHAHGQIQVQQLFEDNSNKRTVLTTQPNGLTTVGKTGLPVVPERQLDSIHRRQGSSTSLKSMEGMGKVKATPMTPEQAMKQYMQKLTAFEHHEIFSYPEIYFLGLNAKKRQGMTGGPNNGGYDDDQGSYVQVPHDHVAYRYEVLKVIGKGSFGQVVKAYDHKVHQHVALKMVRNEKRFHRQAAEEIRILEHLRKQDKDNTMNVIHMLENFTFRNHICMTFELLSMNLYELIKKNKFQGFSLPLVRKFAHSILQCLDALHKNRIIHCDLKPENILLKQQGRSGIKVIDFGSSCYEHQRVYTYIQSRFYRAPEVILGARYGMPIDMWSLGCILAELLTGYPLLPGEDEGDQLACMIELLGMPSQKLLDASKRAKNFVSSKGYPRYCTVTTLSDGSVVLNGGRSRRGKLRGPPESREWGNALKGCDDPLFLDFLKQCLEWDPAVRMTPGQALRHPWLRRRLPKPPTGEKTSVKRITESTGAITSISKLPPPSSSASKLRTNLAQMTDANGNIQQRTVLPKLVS

[13] = biological target: T8, PKD2 (Homo sapiens, UniProt Q9BZL6); assay type: biochemical; details: 10 μM ATP
T8 construct: purchased Reaction Biology Corp

[14] = biological target: T9, PKG2 (Homo sapiens, UniProt Q13237); assay type: biochemical; details: 10 μM ATP
T9 construct: purchased Reaction Biology Corp

[15] = biological target: T10, MSK2 (Homo sapiens, UniProt O75676); assay type: biochemical; details: 10 μM ATP
T10 construct: purchased Reaction Biology Corp

[16] = biological target: T11, PKCδ (Homo sapiens, UniProt Q05655); assay type: biochemical
T11 construct: purchased Reaction Biology Corp

[17] = biological target: T12, RSK2 (Homo sapiens, UniProt P51812); assay type: biochemical; details: 10 μM ATP
T12 construct: purchased Reaction Biology Corp

[18] = biological target: GSK3β (Homo sapiens, UniProt P49841)
[19] = biological target: T13, YSK1 (Homo sapiens, UniProt O00506); assay type: biochemical; details: 50 nM, 10 μM ATP
T13 construct: purchased Reaction Biology Corp

[20] = biological target: T14, PKN3 (Homo sapiens, UniProt Q6P5Z2); assay type: biochemical; details: 10 μM ATP
T14 construct: purchased Reaction Biology Corp

[21] = biological target: DYRK1B (Homo sapiens, UniProt Q9Y463); assay type: biochemical
DYRK1B, sequence (Q9Y463 whole entry): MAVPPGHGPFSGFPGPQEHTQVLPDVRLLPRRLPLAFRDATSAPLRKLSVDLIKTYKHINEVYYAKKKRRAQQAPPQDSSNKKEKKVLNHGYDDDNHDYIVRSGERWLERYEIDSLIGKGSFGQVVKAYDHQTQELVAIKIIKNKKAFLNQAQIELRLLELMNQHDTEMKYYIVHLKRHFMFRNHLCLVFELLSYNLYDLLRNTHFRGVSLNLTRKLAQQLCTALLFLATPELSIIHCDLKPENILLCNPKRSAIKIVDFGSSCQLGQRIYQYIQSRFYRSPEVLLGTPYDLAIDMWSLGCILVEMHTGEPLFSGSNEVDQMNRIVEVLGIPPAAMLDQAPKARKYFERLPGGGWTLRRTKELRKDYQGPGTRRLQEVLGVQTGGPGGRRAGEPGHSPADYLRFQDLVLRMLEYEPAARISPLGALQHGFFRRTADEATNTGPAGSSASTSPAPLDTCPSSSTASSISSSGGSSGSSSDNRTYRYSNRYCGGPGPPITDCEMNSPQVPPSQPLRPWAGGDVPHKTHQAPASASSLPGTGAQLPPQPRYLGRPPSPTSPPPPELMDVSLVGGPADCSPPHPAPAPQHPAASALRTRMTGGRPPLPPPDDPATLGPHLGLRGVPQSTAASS

T11 sequence (Q05655 whole entry): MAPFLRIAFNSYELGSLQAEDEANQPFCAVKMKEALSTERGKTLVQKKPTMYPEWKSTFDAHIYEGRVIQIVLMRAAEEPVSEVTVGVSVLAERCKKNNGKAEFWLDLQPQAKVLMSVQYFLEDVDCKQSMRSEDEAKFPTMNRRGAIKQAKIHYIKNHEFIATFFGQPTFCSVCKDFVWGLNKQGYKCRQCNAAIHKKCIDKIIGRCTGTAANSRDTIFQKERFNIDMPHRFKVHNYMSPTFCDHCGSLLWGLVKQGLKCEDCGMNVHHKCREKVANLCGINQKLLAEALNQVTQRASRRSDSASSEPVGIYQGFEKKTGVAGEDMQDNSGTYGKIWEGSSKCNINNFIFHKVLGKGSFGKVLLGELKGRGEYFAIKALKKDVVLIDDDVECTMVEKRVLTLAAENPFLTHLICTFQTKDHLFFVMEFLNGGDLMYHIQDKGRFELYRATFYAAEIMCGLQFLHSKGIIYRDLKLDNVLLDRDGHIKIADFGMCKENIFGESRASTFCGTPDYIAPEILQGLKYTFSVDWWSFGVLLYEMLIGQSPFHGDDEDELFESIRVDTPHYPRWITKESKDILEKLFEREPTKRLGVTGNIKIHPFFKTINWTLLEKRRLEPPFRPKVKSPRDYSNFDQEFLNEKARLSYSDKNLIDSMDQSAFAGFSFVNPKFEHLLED
T12 sequence (P51812 whole entry): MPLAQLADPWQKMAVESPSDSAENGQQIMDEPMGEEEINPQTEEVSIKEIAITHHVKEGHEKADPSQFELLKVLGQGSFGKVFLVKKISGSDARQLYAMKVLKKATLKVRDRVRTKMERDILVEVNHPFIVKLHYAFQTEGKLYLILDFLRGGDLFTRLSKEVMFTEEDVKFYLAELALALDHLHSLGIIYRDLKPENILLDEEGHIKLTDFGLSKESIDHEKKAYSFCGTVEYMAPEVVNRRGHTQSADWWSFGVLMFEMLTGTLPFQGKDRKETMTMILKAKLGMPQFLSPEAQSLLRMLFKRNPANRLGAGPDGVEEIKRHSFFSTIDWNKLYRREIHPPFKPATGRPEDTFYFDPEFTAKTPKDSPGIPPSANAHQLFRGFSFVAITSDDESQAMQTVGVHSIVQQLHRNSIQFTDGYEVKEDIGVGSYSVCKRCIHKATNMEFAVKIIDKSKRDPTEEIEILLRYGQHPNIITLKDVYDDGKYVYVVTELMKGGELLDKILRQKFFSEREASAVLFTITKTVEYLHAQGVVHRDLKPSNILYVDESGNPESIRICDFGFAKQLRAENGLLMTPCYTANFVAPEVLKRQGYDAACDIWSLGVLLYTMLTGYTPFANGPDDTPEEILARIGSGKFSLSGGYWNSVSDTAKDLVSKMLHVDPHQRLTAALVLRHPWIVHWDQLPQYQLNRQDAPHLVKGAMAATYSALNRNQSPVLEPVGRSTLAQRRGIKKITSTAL
T2 sequence (Q9Y6E0 whole entry): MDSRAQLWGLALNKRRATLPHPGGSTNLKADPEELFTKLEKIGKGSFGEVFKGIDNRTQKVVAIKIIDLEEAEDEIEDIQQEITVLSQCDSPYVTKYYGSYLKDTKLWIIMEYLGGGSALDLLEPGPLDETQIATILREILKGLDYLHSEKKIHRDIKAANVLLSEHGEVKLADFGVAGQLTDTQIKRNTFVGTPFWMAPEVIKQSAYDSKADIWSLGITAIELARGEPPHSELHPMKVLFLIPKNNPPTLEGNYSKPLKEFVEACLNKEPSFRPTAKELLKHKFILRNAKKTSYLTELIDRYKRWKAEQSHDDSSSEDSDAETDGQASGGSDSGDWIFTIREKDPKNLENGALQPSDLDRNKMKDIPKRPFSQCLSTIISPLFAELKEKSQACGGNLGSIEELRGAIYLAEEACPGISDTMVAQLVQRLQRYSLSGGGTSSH
T8 sequence (Q9BZL6 whole entry): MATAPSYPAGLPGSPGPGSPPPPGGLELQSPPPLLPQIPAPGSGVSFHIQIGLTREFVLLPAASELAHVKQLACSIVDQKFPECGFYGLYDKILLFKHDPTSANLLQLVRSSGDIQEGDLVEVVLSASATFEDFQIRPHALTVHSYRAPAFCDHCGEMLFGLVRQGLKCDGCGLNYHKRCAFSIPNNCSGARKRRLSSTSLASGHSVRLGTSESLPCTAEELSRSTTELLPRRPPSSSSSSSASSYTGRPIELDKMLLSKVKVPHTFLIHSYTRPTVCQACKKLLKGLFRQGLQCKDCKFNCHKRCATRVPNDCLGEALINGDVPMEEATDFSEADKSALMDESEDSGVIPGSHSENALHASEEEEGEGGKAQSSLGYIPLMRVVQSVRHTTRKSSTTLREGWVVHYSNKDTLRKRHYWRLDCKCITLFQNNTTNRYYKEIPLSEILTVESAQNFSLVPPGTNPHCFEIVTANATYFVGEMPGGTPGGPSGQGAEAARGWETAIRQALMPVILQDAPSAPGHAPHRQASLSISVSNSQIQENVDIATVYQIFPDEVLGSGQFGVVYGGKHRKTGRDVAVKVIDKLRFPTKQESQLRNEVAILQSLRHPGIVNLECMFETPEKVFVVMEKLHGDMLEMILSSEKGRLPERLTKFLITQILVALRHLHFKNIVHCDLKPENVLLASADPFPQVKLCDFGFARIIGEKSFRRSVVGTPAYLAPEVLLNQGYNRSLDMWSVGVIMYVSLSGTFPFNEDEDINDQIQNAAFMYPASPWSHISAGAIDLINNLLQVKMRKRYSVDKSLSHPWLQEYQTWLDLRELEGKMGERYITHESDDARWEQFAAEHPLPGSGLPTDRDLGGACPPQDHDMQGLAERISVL
T10 sequence (O75676 whole entry): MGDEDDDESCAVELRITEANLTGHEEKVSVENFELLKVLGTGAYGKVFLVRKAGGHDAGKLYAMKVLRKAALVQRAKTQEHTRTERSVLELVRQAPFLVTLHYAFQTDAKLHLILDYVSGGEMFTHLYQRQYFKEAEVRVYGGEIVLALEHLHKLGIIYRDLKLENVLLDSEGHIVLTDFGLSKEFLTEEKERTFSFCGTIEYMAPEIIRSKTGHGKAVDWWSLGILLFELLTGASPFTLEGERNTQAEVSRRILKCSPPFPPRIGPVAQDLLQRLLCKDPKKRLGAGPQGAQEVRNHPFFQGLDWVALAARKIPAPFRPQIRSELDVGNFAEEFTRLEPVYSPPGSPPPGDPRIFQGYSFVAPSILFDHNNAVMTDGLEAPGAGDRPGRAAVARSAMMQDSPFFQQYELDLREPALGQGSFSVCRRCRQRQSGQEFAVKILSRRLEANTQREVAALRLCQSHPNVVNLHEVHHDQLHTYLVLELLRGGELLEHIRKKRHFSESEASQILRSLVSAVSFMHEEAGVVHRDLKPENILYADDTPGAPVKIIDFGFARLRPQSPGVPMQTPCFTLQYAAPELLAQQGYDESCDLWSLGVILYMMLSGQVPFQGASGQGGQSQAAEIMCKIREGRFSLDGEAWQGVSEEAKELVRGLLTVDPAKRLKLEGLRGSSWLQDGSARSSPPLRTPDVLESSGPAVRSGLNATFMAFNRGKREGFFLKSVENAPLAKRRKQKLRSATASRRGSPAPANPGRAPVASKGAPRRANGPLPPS
MAP2K1 (MEK1), sequence (Q02750 whole entry): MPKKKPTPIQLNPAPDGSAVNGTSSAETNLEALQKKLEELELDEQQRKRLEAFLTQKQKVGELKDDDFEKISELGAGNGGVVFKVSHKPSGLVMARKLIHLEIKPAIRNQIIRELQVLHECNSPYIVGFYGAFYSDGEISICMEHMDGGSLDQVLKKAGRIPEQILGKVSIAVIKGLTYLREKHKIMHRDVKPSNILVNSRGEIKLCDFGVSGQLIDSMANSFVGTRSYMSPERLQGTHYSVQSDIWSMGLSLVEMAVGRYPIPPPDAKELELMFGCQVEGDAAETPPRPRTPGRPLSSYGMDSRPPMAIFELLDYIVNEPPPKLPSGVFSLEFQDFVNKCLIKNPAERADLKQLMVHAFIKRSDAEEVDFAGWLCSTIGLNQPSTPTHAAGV
CAMK1δ, sequence (Q8IU85 whole entry): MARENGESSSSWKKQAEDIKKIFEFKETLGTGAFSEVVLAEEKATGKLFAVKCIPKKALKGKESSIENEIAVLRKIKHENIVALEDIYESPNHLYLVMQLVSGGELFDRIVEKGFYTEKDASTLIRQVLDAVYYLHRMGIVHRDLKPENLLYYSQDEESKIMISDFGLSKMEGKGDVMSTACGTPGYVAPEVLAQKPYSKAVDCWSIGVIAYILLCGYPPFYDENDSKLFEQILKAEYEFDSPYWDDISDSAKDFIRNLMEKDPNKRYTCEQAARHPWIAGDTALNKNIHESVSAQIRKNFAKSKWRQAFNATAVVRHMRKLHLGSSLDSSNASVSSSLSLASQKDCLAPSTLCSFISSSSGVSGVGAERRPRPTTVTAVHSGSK

With `Cn1cncc1C1=CN(c2ncnc3nc[nH]c23)CCS1` [Compound 1, Aplithianine A] the inhibition at 2 µM [1] was 97.8%, the IC50 [2] was 18 to 65 µM and the IC50 ([2]; read-out: ERBB2/HER2 IC50, 10 μM ATP) was 26.4 µM. It also gave an inhibition at 0.05 µM ([3]; 50 nM) of 13.2%, an inhibition at 2 µM ([3]; 2 μM) of -15.6% and an inhibition at 0.05 µM ([4]; 50 nM) of 21.3%. The inhibition at 2 µM ([4]; 2 μM) was 74%, the IC50 [5] was 18 to 65 µM and the IC50 ([5]; read-out: MAP2K1 / MEK1 IC50, 10 μM ATP) was 23.6 µM. For the same compound, the IC50 [6] was 0.8 to 6.6 µM, the IC50 ([6]; read-out: CK1α1 IC50, 10 μM ATP) was 1.83 µM and the IC50 [7] was 18 to 65 µM. It also gave an IC50 ([7]; read-out: FLT1/VEGFR1 IC50, 10 μM ATP) of 18.8 µM, an IC50 [8] of 18 to 65 µM and an IC50 ([8]; read-out: CAMK1δ IC50, 10 μM ATP) of 52.3 µM. For the same compound, the inhibition at 2 µM [9] was 87.3%, the inhibition at 0.05 µM [10] was 12.4% and the inhibition at 0.05 µM ([11]; 50 nM) was 12.9%. For the same compound, the inhibition at 2 µM ([11]; 2 μM) was 35.1%, the inhibition at 0.05 µM ([12]; 50 nM, 10 μM ATP) was 20.6% and the inhibition at 2 µM ([12]; 2 μM, 10 μM ATP) was 91.2%. The IC50 ([12]; 10 μM ATP, read-out: DYRK2 IC50) was 0.142 µM, the “DYRK2 Differential (as compared to PKG1a)” value ([12]; IC50 (kinase)/IC50 (PKG1a)) was 13.27 and the IC50 ([12]; Table 4 dose-response, read-out: DYRK2 IC50 Values) was 0.151 µM. The inhibition at 0.05 µM ([13]; 50 nM) was 38.2%, the inhibition at 2 µM ([13]; 2 μM) was 93.1% and the inhibition at 2 µM [14] was 99.4%. For the same compound, the inhibition at 0.05 µM ([15]; 50 nM) was 13.3%, the inhibition at 2 µM ([15]; 2 μM) was 75.5% and the inhibition at 0.05 µM ([16]; 50 nM, 10 μM ATP) was 12.6%. The inhibition at 2 µM ([16]; 2 μM, 10 μM ATP) was 81.1%, the IC50 ([16]; 10 μM ATP, read-out: PKCδ IC50) was 0.184 µM and the “PKCd Differential (as compared to PKG1a)” value ([16]; IC50 (kinase)/IC50 (PKG1a)) was 16.77. For the same compound, the IC50 ([16]; Table 4 dose-response, read-out: PKCd IC50 Values) was 0.191 µM, the inhibition at 0.05 µM ([17]; 50 nM) was 12.3% and the inhibition at 2 µM ([17]; 2 μM) was 66%. The IC50 [18] was 0.043 to 0.189 µM, the IC50 ([18]; read-out: GSK3β IC50, 10 μM ATP) was 0.099 µM and the inhibition at 0.05 µM [19] was 13.5%. For the same compound, the inhibition at 0.05 µM ([20]; 50 nM) was 18.6%, the inhibition at 2 µM ([20]; 2 μM) was 80.4% and the inhibition at 0.05 µM ([21]; 50 nM, 10 μM ATP) was 22.7%. For the same compound, the inhibition at 2 µM ([21]; 2 μM, 10 μM ATP) was 95.3%, the IC50 ([21]; 10 μM ATP, read-out: DYRK1B IC50) was 0.134 µM and the “DYRK1B Differential (as compared to PKG1a)” value ([21]; IC50 (kinase)/IC50 (PKG1a)) was 11.87. The IC50 ([21]; Table 4 dose-response, read-out: DYRK1B IC50 Values) was 0.135 µM.
